pIC50: −log10 of the molar value. In brackets after ≈: the same amount, converted by molar mass.

The subject of one assay is PA:UC12120. The assay is described as follows: MIC determination, PA:UC12120 (Table 3). The class given is cell-based, Pseudomonas aeruginosa. To be noted: Pseudomonas aeruginosa, UC12120, Table 3, lower of duplicate values. The method, boiled down: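 CLSI broth dilution MIC with 2-fold concentration steps, overnight incubation; MIC is the lowest concentration visibly inhibiting growth versus drug-free control. Run in duplicate, lower value reported when within 2-fold; control organisms and reference compounds required within defined ranges.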

For assay [1], the system named is Acinetobacter baumannii/haemolyticus, multidrug-resistant clinical isolate (AB-3167). The assay is described as follows: MIC determination, AB-3167. It counts as cell-based. The note with it: Table 3, lower of duplicate values. The method, boiled down: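 Broth dilution MIC per CLSI M7-A8, 2-fold drug series, overnight incubation, lowest concentration visibly inhibiting growth against drug-free control. Run in duplicate, lower value reported; duplicates differing >2-fold repeated; QC strains and reference compounds required in range.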

Assay [2] has as its system Escherichia coli EC-1: VOGEL, mouse virulent. In words: MIC determination, EC-1. The class given is cell-based. To be noted: Escherichia coli, read-out: EC-1 (MIC), Table 3, lower of duplicate values. The method, boiled down:
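MIC against mouse-virulent E. coli EC-1 (VOGEL) was determined by CLSI M7-A8 broth dilution with 2-fold drug increments and overnight incubation. The MIC is the lowest concentration with no visible growth versus drug-free control. Tests were run in duplicate and the lower value reported if within 2-fold, with QC organisms and reference drugs in each run.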

Assay [3] has as its target T1, Pseudomonas aeruginosa LpxC enzyme (Pseudomonas aeruginosa, UniProt P47205).
T1 construct: made in house; host or cells: E. coli
T1 sequence (P47205 1-303): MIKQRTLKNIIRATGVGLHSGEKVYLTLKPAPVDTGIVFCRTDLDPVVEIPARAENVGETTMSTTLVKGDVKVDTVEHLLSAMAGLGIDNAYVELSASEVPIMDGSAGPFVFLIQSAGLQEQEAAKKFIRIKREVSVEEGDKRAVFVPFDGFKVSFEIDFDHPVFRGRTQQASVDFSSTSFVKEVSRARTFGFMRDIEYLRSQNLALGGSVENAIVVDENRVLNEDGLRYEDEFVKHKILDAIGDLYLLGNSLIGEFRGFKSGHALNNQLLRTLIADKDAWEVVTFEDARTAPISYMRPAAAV
The assay is described as follows: IC50 assay, LpxC enzyme from P. aeruginosa (PA LpxC enzyme IC50). The class given is biochemical. The note with it: Table 3; LpxC enzyme 0.1 nM, 25° C., 1 hour; read-out: PA:IC50. The essentials: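 The LpxC reaction ran 1 hour and was stopped with HCl. Substrate-to-product conversion was measured by RapidFire mass spectrometry, and IC50 values were calculated from percent conversion relative to a no-enzyme control.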

In the case of `CC(=O)Nc1ccc(-c2cc(=O)n(CCC(C)(C(=O)NO)S(C)(=O)=O)cc2F)cc1` (stereo not drawn) [Example 81, 4-[4-(4-acetamidophenyl)-5-fluoro-2-oxopyridin-1(2H)-yl]-N-hydroxy-2-methyl-2-(methylsulfonyl)butanamide], the minimum inhibitory concentration (MIC) (as a rule, the lowest concentration found to suppress growth) was 32 mg/L (≈ 72.8 µM) with PA:UC12120, greater than 64 mg/L in assay [1] and 64 mg/L (≈ 146 µM) in assay [2]. In assay [3], the pIC50 – broadly, the negative decadic logarithm of the IC50, by convention in mol/L – was 7.61.
The like results for `COc1ccccc1-c1cc(=O)n(CCC(C)(C(=O)NO)S(C)(=O)=O)cc1F` (stereo not drawn) [Example 125, 4-[5-fluoro-4-(2-methoxyphenyl)-2-oxopyridin-1(2H)-yl]-N-hydroxy-2-methyl-2-(methylsulfonyl)butanamide] were, in that order, 8 mg/L (≈ 19.4 µM), greater than 64 mg/L, 64 mg/L (≈ 155 µM) and 7.89.
Consider `CC(CCn1cc(F)c(-c2cccc(F)c2)cc1=O)(C(=O)NO)S(C)(=O)=O` (stereo not drawn) [Example 116, 4-[5-fluoro-4-(3-fluorophenyl)-2-oxopyridin-1(2H)-yl]-N-hydroxy-2-methyl-2-(methylsulfonyl)butanamide], for which the figures for the MIC (in the assay on PA:UC12120; in assay [1]; in assay [2]) were 1 mg/L (≈ 2.5 µM), greater than 64 mg/L and 4 mg/L (≈ 9.99 µM), respectively. Also, the pIC50 in assay [3] is 9.00.
For `CCOc1ccc(-c2cc(=O)n(CCC(C)(C(=O)NO)S(C)(=O)=O)cc2F)cc1` (stereo not drawn) [Example 76, 4-[4-(4-ethoxyphenyl)-5-fluoro-2-oxopyridin-1(2H)-yl]-N-hydroxy-2-methyl-2-(methylsulfonyl)butanamide], the MIC was 0.5 mg/L (≈ 1.17 µM) against PA:UC12120, greater than 64 mg/L in assay [1] and 0.25 mg/L (≈ 0.586 µM) in assay [2]. Besides, the pIC50 in assay [3] was 8.96.
In the same order, the values of `CC(CCn1cc(F)c(-c2ccccc2F)cc1=O)(C(=O)NO)S(C)(=O)=O` (stereo not drawn) [Example 103, 4-[5-fluoro-4-(2-fluorophenyl)-2-oxopyridin-1(2H)-yl]-N-hydroxy-2-methyl-2-(methylsulfonyl)butanamide] are 0.5 mg/L (≈ 1.25 µM), greater than 64 mg/L, 4 mg/L (≈ 9.99 µM) and 8.85.
In the same order, the values of `CNC(=O)c1ccc(-c2cc(=O)n(CCC(C)(C(=O)NO)S(C)(=O)=O)cc2F)cc1` (stereo not drawn) [Example 84, 4-{5-fluoro-1-[4-(hydroxyamino)-3-methyl-3-(methylsulfonyl)-4-oxobutyl]-2-oxo-1,2-dihydropyridin-4-yl}-N-methylbenzamide] are greater than 64 mg/L, greater than 64 mg/L, greater than 64 mg/L and 7.84.
`CN(C)Cc1ccc(-c2cc(=O)n(CCC(C)(C(=O)NO)S(C)(=O)=O)cc2F)cc1` (stereo not drawn) [Example 79, 4-[4-{4-[(dimethylamino)methyl]phenyl}-5-fluoro-2-oxopyridin-1(2H)-yl]-N-hydroxy-2-methyl-2-(methylsulfonyl)butanamide]: the MIC against PA:UC12120 is 16 mg/L (≈ 36.4 µM); in assay [1], greater than 64 mg/L; in assay [2], greater than 64 mg/L. Moreover, in assay [3], the pIC50 is 7.44.
As to `CC(CCn1cc(F)c(-c2cc(F)cc(Cl)c2)cc1=O)(C(=O)NO)S(C)(=O)=O` (stereo not drawn) [Example 56, 4-[4-(3-chloro-5-fluorophenyl)-5-fluoro-2-oxopyridin-1(2H)-yl]-N-hydroxy-2-methyl-2-(methylsulfonyl)butanamide], the values for the MIC (against PA:UC12120; in assay [1]; in assay [2]) were 2 mg/L (≈ 4.6 µM), greater than 64 mg/L and 8 mg/L (≈ 18.4 µM), respectively. The pIC50 in assay [3] is 8.70.
As for `CC(CCn1cc(F)c(-c2ccc(Cl)c(O)c2)cc1=O)(C(=O)NO)S(C)(=O)=O` (stereo not drawn) [Example 109, 4-[4-(4-chloro-3-hydroxyphenyl)-5-fluoro-2-oxopyridin-1(2H)-yl]-N-hydroxy-2-methyl-2-(methylsulfonyl)butanamide], the MIC was 32 mg/L (≈ 73.9 µM) in the assay with PA:UC12120, greater than 64 mg/L in assay [1] and 32 mg/L (≈ 73.9 µM) in assay [2]. Also, the pIC50 in assay [3] is 8.14.
On to `CN(C)c1ncc(-c2cc(=O)n(CCC(C)(C(=O)NO)S(C)(=O)=O)cc2F)cn1` (stereo not drawn) [Example 115, 4-{4-[2-(dimethylamino)pyrimidin-5-yl]-5-fluoro-2-oxopyridin-1(2H)-yl}-N-hydroxy-2-methyl-2-(methylsulfonyl)butanamide], for which the MIC with PA:UC12120 was 32 mg/L (≈ 74.9 µM); in assay [1], greater than 64 mg/L; in assay [2], 32 mg/L (≈ 74.9 µM). For the same compound, in assay [3], the pIC50 is 7.13.
With `COc1cc(C#N)cc(-c2cc(=O)n(CCC(C)(C(=O)NO)S(C)(=O)=O)cc2F)c1` (stereo not drawn) [Example 119, 4-[4-(3-cyano-5-methoxyphenyl)-5-fluoro-2-oxopyridin-1(2H)-yl]-N-hydroxy-2-methyl-2-(methylsulfonyl)butanamide], the MIC in the assay on PA:UC12120 is 64 mg/L (≈ 146 µM); in assay [1], greater than 64 mg/L; in assay [2] it was greater than 64 mg/L. For the same compound, the pIC50 in assay [3] was 7.29.
With `CC(C)(C#N)c1ccc(-c2cc(=O)n(CCC(C)(C(=O)NO)S(C)(=O)=O)cc2F)cc1` (stereo not drawn) [Example 60, 4-{4-[4-(1-cyano-1-methylethyl)phenyl]-5-fluoro-2-oxopyridin-1(2H)-yl}-N-hydroxy-2-methyl-2-(methylsulfonyl)butanamide], the minimum inhibitory concentration (MIC) was 4 mg/L (≈ 8.9 µM) against PA:UC12120, greater than 64 mg/L in assay [1] and 32 mg/L (≈ 71.2 µM) in assay [2]. In addition, the pIC50 in assay [3] was 8.41.
In the same order, the values of `Cc1ccc2ccc(-c3cc(=O)n(CCC(C)(C(=O)NO)S(C)(=O)=O)cc3F)cc2n1` (stereo not drawn) [Example 96, 4-[5-fluoro-4-(2-methylquinolin-7-yl)-2-oxopyridin-1(2H)-yl]-N-hydroxy-2-methyl-2-(methylsulfonyl)butanamide] are 32 mg/L (≈ 71.5 µM), greater than 64 mg/L, 16 mg/L (≈ 35.8 µM) and 7.97.
The like results for `Cn1cnc2cc(-c3cc(=O)n(CCC(C)(C(=O)NO)S(C)(=O)=O)cc3F)cnc21` (stereo not drawn) [Example 71, 4-[5-fluoro-4-(3-methyl-3H-imidazo[4,5-b]pyridin-6-yl)-2-oxopyridin-1(2H)-yl]-N-hydroxy-2-methyl-2-(methylsulfonyl)butanamide] were, in that order, greater than 64 mg/L, greater than 64 mg/L, greater than 64 mg/L and less than 7.00.
The like results for `COc1cc(C)cc(-c2cc(=O)n(CCC(C)(C(=O)NO)S(C)(=O)=O)cc2F)c1F` (stereo not drawn) [Example 111, 4-[5-fluoro-4-(2-fluoro-3-methoxy-5-methylphenyl)-2-oxopyridin-1(2H)-yl]-N-hydroxy-2-methyl-2-(methylsulfonyl)butanamide] were, in that order, 4 mg/L (≈ 9 µM), greater than 64 mg/L, 4 mg/L (≈ 9 µM) and 8.52.

For the origin of these results see patent US8624034B2, “Fluoro-pyridinone derivatives useful as antibacterial agents” (Pfizer Inc., priority 2011, dated 2014).
